Measured values as given in US10844077B2, “Thiazolyl-containing compounds for treating proliferative diseases” (Dana-Farber Cancer Institute, Inc., priority 2014, dated 2020).
Several values for one entry are separate records, joined by “and”; a condition that tells them apart may be missing. Equal entries are not always repeated.

How the values were obtained:
Test in all cases: KINATIV assay
Format in all cases: cell-based
Conditions in all cases: 1 μM, 90 minutes, BCWM.1 cells
[1] = system: MYO3A, MYO3B
Method in brief: (§1)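 Duplicate compound samples were compared with duplicate or quadruplicate controls. After harvesting and lysis, cells' lysates were probe-labeled (ATP-biotin), and kinase labeling was quantitated by ACTIVX.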

[2] = system: TAO1, TAO3
Method in brief: as §1

[3] = target: STLK5 (Homo sapiens (Human), UniProt Q7RTN6)
Method in brief: as §1

[4] = target: NEK1 (Homo sapiens (Human), UniProt Q96PY6)
Method in brief: as §1

[5] = target: MARK2 (Homo sapiens (Human), UniProt Q7KZI7)
Method in brief: as §1

[6] = system: MAST1, MAST2
Method in brief: as §1

[7] = target: MAP3K2 (Homo sapiens (Human), UniProt Q9Y2U5)
Method in brief: as §1

[8] = target: MASTL (Homo sapiens (Human), UniProt Q96GX5)
Method in brief: as §1

[9] = target: RSK3 domain1 (Homo sapiens (Human), UniProt Q15349)
Method in brief: as §1

[10] = target: MARK3 (Homo sapiens (Human), UniProt P27448)
Method in brief: as §1

[11] = target: MLKL (Homo sapiens (Human), UniProt Q8NB16)
Method in brief: as §1

[12] = target: MAP3K6 (Homo sapiens (Human), UniProt O95382)
Method in brief: as §1

[13] = system: PITSLRE
Method in brief: as §1

[14] = target: Erk5 (Homo sapiens (Human), UniProt Q13164)
Method in brief: as §1

[15] = target: NEK9 (Homo sapiens (Human), UniProt Q8TD19)
Method in brief: as §1

[16] = target: MAST3 (Homo sapiens (Human), UniProt O60307)
Method in brief: as §1

[17] = target: CDK9 (Homo sapiens (Human), UniProt P50750)
Method in brief: as §1

[18] = target: CK1g2 (Homo sapiens (Human), UniProt P78368)
Method in brief: as §1

[19] = system: MAP3K2, MAP3K3
Method in brief: as §1

[20] = target: NEK4 (Homo sapiens (Human), UniProt P51957)
Method in brief: as §1

[21] = target: LATS2 (Homo sapiens (Human), UniProt Q9NRM7)
Method in brief: as §1

[22] = target: CK1a (Homo sapiens (Human), UniProt P48729)
Method in brief: as §1

[23] = system: MARK3, MARK4
Method in brief: as §1

[24] = system: PKD1, PKD2
Method in brief: as §1

[25] = target: PIK3C2B (Homo sapiens (Human), UniProt O00750)
Method in brief: as §1

[26] = target: CK2a1 (Homo sapiens (Human), UniProt P68400)
Method in brief: as §1

[27] = target: LKB1 (Homo sapiens (Human), UniProt Q15831)
Method in brief: as §1

[28] = target: RSKL1 (Homo sapiens (Human), UniProt Q96S38)
Method in brief: as §1

[29] = system: JNK1, JNK2, JNK3
Method in brief: as §1

[30] = target: IRAK1 (Homo sapiens (Human), UniProt P51617)
Method in brief: as §1

[31] = target: CaMK4 (Homo sapiens (Human), UniProt Q16566)
Method in brief: as §1

[32] = target: OSR1 (Homo sapiens (Human), UniProt O95747)
Method in brief: as §1

[33] = target: JAK1 (Homo sapiens (Human), UniProt P23458)
Method in brief: as §1

[34] = target: IKKa (Homo sapiens (Human), UniProt O15111)
Method in brief: as §1

[35] = target: NEK3 (Homo sapiens (Human), UniProt P51956)
Method in brief: as §1

[36] = system: MARK1, MARK2
Method in brief: as §1

[37] = target: EphB2 (Homo sapiens (Human), UniProt P29323)
Method in brief: as §1

[38] = target: BRAF (Homo sapiens (Human), UniProt P15056)
Method in brief: as §1

[39] = target: ROCK1 (Homo sapiens (Human), UniProt Q13464)
Method in brief: as §1

[40] = target: LCK (Homo sapiens (Human), UniProt P06239)
Method in brief: as §1

[41] = target: ILK (Homo sapiens (Human), UniProt Q13418)
Method in brief: as §1

[42] = system: Wnk1, Wnk2, Wnk4
Method in brief: as §1

JAK1, sequence (P23458 whole entry): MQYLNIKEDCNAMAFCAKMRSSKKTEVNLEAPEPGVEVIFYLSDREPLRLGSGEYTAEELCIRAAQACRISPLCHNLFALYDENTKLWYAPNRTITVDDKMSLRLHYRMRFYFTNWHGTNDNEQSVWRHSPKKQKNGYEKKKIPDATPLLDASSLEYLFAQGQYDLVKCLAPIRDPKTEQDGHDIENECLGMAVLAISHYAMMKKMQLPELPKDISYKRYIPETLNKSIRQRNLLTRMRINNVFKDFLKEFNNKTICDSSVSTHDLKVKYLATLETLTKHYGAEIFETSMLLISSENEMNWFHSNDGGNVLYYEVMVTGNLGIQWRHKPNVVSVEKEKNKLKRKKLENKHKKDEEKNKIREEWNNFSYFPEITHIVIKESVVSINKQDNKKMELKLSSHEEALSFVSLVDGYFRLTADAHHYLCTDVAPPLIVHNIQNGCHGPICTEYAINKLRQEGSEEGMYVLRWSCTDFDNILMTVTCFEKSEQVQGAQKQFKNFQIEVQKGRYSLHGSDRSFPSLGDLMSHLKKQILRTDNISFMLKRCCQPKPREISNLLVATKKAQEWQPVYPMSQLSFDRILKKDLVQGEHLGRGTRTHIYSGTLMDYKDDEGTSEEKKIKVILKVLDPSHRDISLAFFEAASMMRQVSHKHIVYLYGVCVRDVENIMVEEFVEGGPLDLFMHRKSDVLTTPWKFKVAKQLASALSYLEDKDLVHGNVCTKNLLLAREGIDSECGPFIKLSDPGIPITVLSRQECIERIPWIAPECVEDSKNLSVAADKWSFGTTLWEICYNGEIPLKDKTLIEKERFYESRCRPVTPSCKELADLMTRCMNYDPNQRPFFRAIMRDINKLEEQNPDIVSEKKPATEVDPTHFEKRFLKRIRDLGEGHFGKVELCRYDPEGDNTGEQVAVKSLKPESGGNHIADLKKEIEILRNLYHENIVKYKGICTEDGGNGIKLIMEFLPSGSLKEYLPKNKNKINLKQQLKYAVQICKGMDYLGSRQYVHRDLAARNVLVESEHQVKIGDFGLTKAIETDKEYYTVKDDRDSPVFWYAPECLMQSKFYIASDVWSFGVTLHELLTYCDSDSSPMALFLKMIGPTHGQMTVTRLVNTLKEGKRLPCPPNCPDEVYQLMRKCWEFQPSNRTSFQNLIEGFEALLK
CK2a1, sequence (P68400 whole entry): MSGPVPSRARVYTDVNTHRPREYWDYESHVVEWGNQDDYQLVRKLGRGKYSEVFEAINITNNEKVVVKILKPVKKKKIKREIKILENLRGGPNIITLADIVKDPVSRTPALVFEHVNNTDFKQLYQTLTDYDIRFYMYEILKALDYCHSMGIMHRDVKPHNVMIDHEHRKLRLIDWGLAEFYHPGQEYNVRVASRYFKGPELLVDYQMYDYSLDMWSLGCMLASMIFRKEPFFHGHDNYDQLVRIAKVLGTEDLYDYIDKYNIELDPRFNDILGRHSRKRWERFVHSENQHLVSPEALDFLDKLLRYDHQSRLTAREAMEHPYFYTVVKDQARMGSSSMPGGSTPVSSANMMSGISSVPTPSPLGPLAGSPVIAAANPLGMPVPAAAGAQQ
CDK9, sequence (P50750 whole entry): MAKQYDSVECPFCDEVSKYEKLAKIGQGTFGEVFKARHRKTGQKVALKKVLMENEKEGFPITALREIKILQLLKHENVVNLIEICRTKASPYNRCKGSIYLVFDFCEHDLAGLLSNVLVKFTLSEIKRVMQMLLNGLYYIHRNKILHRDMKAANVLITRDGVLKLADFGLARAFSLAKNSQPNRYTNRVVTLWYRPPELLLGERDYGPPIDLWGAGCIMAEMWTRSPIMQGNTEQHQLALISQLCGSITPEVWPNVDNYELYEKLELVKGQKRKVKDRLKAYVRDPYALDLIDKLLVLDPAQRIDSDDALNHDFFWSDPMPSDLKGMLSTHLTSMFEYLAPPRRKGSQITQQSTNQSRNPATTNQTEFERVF
CDK9, sequence (O60563 whole entry partner): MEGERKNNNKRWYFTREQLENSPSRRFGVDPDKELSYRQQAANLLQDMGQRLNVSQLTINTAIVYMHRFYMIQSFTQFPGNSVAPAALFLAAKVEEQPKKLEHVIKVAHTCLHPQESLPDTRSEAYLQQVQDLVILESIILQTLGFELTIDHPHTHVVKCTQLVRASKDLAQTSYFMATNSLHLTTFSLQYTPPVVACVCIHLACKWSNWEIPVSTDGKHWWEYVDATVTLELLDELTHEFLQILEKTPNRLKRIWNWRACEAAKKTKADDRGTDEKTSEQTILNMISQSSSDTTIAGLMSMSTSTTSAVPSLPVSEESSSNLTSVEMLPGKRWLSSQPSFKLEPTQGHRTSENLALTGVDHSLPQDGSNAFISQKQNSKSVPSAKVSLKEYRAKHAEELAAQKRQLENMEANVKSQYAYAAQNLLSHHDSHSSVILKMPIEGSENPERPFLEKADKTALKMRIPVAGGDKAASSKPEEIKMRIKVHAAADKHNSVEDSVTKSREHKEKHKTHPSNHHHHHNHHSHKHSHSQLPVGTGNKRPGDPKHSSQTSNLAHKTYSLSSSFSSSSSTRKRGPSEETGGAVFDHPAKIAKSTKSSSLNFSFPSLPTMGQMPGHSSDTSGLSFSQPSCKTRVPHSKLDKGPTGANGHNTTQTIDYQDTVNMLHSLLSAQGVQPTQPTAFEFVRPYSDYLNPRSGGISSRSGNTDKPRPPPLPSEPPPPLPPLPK
CaMK4, sequence (Q16566 whole entry): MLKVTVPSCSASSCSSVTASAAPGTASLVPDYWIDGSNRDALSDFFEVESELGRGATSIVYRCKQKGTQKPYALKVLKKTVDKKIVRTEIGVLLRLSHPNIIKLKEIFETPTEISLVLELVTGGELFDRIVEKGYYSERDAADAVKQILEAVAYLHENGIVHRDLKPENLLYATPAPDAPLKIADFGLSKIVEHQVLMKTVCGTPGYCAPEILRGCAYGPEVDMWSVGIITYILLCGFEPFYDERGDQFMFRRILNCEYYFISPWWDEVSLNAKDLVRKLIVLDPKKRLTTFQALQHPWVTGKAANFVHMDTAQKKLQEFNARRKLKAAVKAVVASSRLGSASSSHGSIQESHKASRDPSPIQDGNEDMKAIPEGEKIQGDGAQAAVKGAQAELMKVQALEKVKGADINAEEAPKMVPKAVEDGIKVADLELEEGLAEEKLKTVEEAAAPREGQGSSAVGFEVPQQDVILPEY
MASTL, sequence (Q96GX5 whole entry): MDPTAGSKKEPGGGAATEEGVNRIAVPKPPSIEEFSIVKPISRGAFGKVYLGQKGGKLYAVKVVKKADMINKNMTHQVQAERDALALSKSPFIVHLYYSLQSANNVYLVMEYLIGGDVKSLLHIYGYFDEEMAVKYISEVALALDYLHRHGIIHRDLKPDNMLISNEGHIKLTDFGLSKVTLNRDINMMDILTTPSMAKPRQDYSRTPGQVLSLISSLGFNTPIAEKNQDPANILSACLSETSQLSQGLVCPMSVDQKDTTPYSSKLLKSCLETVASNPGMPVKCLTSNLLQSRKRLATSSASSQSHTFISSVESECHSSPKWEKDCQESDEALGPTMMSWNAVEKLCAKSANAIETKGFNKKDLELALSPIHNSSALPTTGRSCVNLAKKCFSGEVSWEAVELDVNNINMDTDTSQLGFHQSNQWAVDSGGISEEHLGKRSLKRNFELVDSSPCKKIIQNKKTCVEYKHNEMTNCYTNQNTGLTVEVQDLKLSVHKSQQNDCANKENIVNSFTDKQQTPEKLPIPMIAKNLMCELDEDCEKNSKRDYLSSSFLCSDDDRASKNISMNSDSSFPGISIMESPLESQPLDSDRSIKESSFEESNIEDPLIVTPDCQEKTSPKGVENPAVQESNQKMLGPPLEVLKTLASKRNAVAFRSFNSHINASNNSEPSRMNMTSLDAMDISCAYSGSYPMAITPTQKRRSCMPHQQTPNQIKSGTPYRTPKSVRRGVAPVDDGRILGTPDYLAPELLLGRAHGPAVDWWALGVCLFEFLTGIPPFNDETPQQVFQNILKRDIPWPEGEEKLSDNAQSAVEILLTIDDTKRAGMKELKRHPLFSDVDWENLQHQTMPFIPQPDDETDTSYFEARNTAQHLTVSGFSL
RSKL1, sequence (Q96S38 whole entry): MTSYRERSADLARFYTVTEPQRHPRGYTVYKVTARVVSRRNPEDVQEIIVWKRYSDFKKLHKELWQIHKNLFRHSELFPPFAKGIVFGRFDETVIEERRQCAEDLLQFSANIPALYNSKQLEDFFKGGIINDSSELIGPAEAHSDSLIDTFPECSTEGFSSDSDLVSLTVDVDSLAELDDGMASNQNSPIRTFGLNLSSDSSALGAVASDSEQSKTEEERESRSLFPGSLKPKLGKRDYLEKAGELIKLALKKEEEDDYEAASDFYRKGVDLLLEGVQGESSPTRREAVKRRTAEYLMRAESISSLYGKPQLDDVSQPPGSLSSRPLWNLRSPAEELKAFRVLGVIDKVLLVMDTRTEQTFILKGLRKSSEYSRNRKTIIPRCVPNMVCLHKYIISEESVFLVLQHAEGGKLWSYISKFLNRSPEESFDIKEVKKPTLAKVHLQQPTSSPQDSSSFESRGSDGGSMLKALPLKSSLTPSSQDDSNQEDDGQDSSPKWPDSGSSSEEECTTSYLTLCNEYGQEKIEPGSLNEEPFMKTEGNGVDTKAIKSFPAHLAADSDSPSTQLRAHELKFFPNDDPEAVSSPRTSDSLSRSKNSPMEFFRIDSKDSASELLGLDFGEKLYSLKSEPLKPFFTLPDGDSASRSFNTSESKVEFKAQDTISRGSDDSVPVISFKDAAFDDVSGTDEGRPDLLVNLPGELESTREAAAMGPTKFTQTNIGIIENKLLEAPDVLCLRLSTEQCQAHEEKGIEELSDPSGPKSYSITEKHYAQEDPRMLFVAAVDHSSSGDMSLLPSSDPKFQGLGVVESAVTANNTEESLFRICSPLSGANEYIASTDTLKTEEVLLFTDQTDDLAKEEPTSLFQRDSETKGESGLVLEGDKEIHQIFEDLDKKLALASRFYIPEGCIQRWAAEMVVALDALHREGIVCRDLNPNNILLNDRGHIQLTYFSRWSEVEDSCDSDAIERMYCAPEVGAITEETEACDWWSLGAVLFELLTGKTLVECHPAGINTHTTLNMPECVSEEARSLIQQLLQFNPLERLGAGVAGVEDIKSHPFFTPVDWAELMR

C=CC(=O)N1CCC(CNc2nccc(Nc3ncc(C(=O)Nc4c(C)cccc4C)s3)n2)C1 (racemic) [Example I-8]
% change of MS signal compared to control sample [1]: 23.1%
% change of MS signal compared to control sample [2]: −8.7%
% change of MS signal compared to control sample [3]: 1.1% and −4.0%
% change of MS signal compared to control sample [4]: 12.8%
% change of MS signal compared to control sample [5]: 12.1%
% change of MS signal compared to control sample [6]: −32.5%
% change of MS signal compared to control sample [7]: 3.5%
% change of MS signal compared to control sample [8]: −16.9% and −9.5%
% change of MS signal compared to control sample [9]: −62.5%
% change of MS signal compared to control sample [10]: 7.8%
% change of MS signal compared to control sample [11]: −17.5%
% change of MS signal compared to control sample [12]: −8.1%
% change of MS signal compared to control sample [13]: −16.1%
% change of MS signal compared to control sample [14]: −11.4%
% change of MS signal compared to control sample [15]: −1.3% and −0.3%
% change of MS signal compared to control sample [16]: −8.3%
% change of MS signal compared to control sample [17]: −5.2%
% change of MS signal compared to control sample [18]: −6.1%
% change of MS signal compared to control sample [19]: 19.4%
% change of MS signal compared to control sample [20]: 15.2%
% change of MS signal compared to control sample [21]: 10.6%
% change of MS signal compared to control sample [22]: 14.9%
% change of MS signal compared to control sample [23]: 5.8%
% change of MS signal compared to control sample [24]: −15.3%
% change of MS signal compared to control sample [25]: 12.5%
% change of MS signal compared to control sample [26]: 13.9%
% change of MS signal compared to control sample [27]: −1.8%
% change of MS signal compared to control sample [28]: 35.0%
% change of MS signal compared to control sample [29]: −9.5%
% change of MS signal compared to control sample [30]: 13.6%
% change of MS signal compared to control sample [31]: −26.3%
% change of MS signal compared to control sample [32]: 27.9%
% change of MS signal compared to control sample [33]: −1.9%
% change of MS signal compared to control sample [34]: −4.2%
% change of MS signal compared to control sample [35]: 3.2%
% change of MS signal compared to control sample [36]: 14.6%
% change of MS signal compared to control sample [37]: >90%
% change of MS signal compared to control sample [38]: 11.1%
% change of MS signal compared to control sample [39]: 4.4%
% change of MS signal compared to control sample [40]: 94.8%
% change of MS signal compared to control sample [41]: 19.4% and 36.6%
% change of MS signal compared to control sample [42]: −16.3%

C=CC(=O)N1CCCCC(Nc2nccc(Nc3ncc(C(=O)Nc4c(C)cccc4C)s3)n2)C1 (stereo not shown) [Example I-7]
% change of MS signal compared to control sample [1]: 17.2%
% change of MS signal compared to control sample [2]: −1.8%
% change of MS signal compared to control sample [4]: 11.4%
% change of MS signal compared to control sample [5]: 7.7%
% change of MS signal compared to control sample [6]: −35.0%
% change of MS signal compared to control sample [7]: 4.9%
% change of MS signal compared to control sample [8]: −10.9% and −13.8%
% change of MS signal compared to control sample [9]: −48.6%
% change of MS signal compared to control sample [10]: 12.7%
% change of MS signal compared to control sample [11]: −6.3%
% change of MS signal compared to control sample [12]: −21.3%
% change of MS signal compared to control sample [13]: −9.3%
% change of MS signal compared to control sample [14]: −13.8%
% change of MS signal compared to control sample [15]: 2.5% and 1.1%
% change of MS signal compared to control sample [16]: −1.6%
% change of MS signal compared to control sample [17]: −37.0%
% change of MS signal compared to control sample [18]: −3.7%
% change of MS signal compared to control sample [19]: 15.6%
% change of MS signal compared to control sample [20]: 7.9%
% change of MS signal compared to control sample [21]: −6.6%
% change of MS signal compared to control sample [22]: −0.7%
% change of MS signal compared to control sample [23]: 20.7%
% change of MS signal compared to control sample [24]: −8.3%
% change of MS signal compared to control sample [25]: 39.9%
% change of MS signal compared to control sample [26]: 14.3%
% change of MS signal compared to control sample [27]: 1.2%
% change of MS signal compared to control sample [28]: 29.7%
% change of MS signal compared to control sample [29]: −4.8%
% change of MS signal compared to control sample [30]: 19.0%
% change of MS signal compared to control sample [31]: −24.9%
% change of MS signal compared to control sample [32]: 22.0%
% change of MS signal compared to control sample [33]: 7.5%
% change of MS signal compared to control sample [34]: −3.5%
% change of MS signal compared to control sample [35]: 15.6%
% change of MS signal compared to control sample [36]: 7.9%
% change of MS signal compared to control sample [37]: >90%
% change of MS signal compared to control sample [38]: 21.7%
% change of MS signal compared to control sample [39]: 6.6%
% change of MS signal compared to control sample [40]: 96.5%
% change of MS signal compared to control sample [41]: 17.1% and 28.2%
% change of MS signal compared to control sample [42]: −6.6%

C=CC(=O)N1CCC(Cn2ccc(Nc3ncc(C(=O)Nc4c(C)cccc4Cl)s3)n2)C1 (stereo not shown) [II-1]
% change of MS signal compared to control sample [1]: 12.9%
% change of MS signal compared to control sample [2]: −17.2%
% change of MS signal compared to control sample [3]: 2.6% and 3.8%
% change of MS signal compared to control sample [4]: 14.9%
% change of MS signal compared to control sample [5]: 15.4%
% change of MS signal compared to control sample [6]: −81.3%
% change of MS signal compared to control sample [7]: 21.3%
% change of MS signal compared to control sample [8]: −16.7% and −8.2%
% change of MS signal compared to control sample [9]: −58.4%
% change of MS signal compared to control sample [10]: 18.4%
% change of MS signal compared to control sample [11]: −0.8%
% change of MS signal compared to control sample [12]: 18.9%
% change of MS signal compared to control sample [13]: −16.1%
% change of MS signal compared to control sample [14]: −14.2%
% change of MS signal compared to control sample [15]: −1.0% and −0.1%
% change of MS signal compared to control sample [16]: 3.8%
% change of MS signal compared to control sample [17]: −57.0%
% change of MS signal compared to control sample [18]: −1.1%
% change of MS signal compared to control sample [19]: 17.1%
% change of MS signal compared to control sample [20]: 18.5%
% change of MS signal compared to control sample [21]: −2.9%
% change of MS signal compared to control sample [22]: −14.4%
% change of MS signal compared to control sample [23]: 17.4%
% change of MS signal compared to control sample [24]: −19.8%
% change of MS signal compared to control sample [25]: −5.8%
% change of MS signal compared to control sample [26]: 24.7%
% change of MS signal compared to control sample [27]: −1.2%
% change of MS signal compared to control sample [28]: 13.7%
% change of MS signal compared to control sample [29]: −23.5%
% change of MS signal compared to control sample [30]: 26.3%
% change of MS signal compared to control sample [31]: −10.3%
% change of MS signal compared to control sample [32]: 16.4%
% change of MS signal compared to control sample [33]: 5.4%
% change of MS signal compared to control sample [34]: −2.1%
% change of MS signal compared to control sample [35]: 8.1%
% change of MS signal compared to control sample [36]: 20.9%
% change of MS signal compared to control sample [37]: >90%
% change of MS signal compared to control sample [38]: 6.9%
% change of MS signal compared to control sample [39]: 12.8%
% change of MS signal compared to control sample [40]: 92.4%
% change of MS signal compared to control sample [42]: −8.1%
